These results are taken from article PMC5458187, “Inhibitor SBFI26 suppresses the malignant progression of castration-resistant PC3-M cells by competitively binding to oncogenic FABP5” (Oncotarget, 2017).

Several values for one entry are separate records, joined by “and”; a condition that tells them apart may be missing. Equal values may be shown once.

One may read the Ki as the equilibrium dissociation constant of an inhibitor or competing ligand from its target.

One test deals with wtrFABP5 (Homo sapiens, UniProt Q01469). The experiment in a line: DAUDA displacement assay (ligand binding). Particulars: for relative level of fluorescence intensity after adding ligand to the DAUDA-wtrFABP5 complex: 10 μM ligand, 2 μM DAUDA, 3 μM wtrFABP5, complex without ligand 2.65 ± 0.14; for Ki: displacement of 2 μM DAUDA from 3 μM wtrFABP5, ligand 0.5–20 μM, Ki = IC50/1+(DAUDA/Kd), read-out: inhibition constant Ki (binding affinity). An excerpt:
The fatty acid-binding ability of wtrFABP5 was examined by using the DAUDA displacement assay which used fatty acids and different chemical compounds to replace the fluorescently labelled fatty acid analogue DAUDA (Cayman). […] For each experiment, the fluorescence data were normalized to the peak fluorescent intensity, and then subtracted from the data of samples without protein. The data were fitted by nonlinear regression using GraphPad Prism software to a saturation binding curve model to estimate the apparent dissociation constant (Kd) and maximal fluorescence intensity (Bmax). […] The Ki of each ligand was determined using the equation Ki = IC50/1+ (DAUDA concentration /Kd).

Test [1] concerns PC3-M cells. The experiment in a line: Wound healing migration assay. The format is cell-based, human. Particulars: 100 μM, 24 h; control gap closure 94%. Here is the method:
Wound healing migration assay was carried out to evaluate the effect of SBFI26 on the migratory rate of PC3-M cells. Wounds were generated by scratching the monolayer cells with a blue pipette tip. The floating cells were removed by washing with PBS and inhibitors were added to the culture medium. The wound was photographed under the microscope at 0, 12 and 24 h after treatment and the wound widths were assessed by quantitative analysis using ImageJ software.

Test [2] has as its system PC3-M cells. The experiment in a line: Soft-agar colony formation assay. In kind it is cell-based, human. The note with it: 100 μM. As to the method: Low melting agarose was seeded in 6-well plates and 5 × 10^4 cells/well layered on agar, followed by 200 μl of medium alone or medium with FABP5 inhibitor SBFI26. Colonies larger than 300 μm in each well were counted 2 weeks later in a similar way to that described previously.

The subject of test [3] is PC3-M-Luc8 cells implanted orthotopically into the prostate gland. The experiment in a line: Orthotopic nude mouse assay of tumorigenicity and metastasis. In kind it is in vivo, Balb/c nude mice. As to the method: PC3-M cells were transfected with the pGL4.50 [luc2/CMV/Hygro] vector (Promega) using FuGene HD transfection reagent (Promega) following the manufacturer’s instructions. Individual colonies were isolated by ring cloning and 3 colonies that stably-expressed the highest bioluminescence signals were identified using D-luciferin (Promega) with a Varioskan Flash Reader (Thermo Scientific). Association of the luminescence intensity with the number of cells was assessed by an IVIS imaging system (Perkin Elmer). Cells (5 × 10^5) from PC3-M- luc2 colony were suspended in 30 μL PBS and orthotopically implanted into the dorsal prostate of 33 male Balb/c nude mice (Charles River, UK) (8–10 weeks old), as described previously. One week later, tumour-bearing mice were divided into 2 groups (8 each) and subjected to the following intraperitoneally injections: 1) control with PBS; 2) SBFI26, 1mg/kg. Injections were repeated every two days for 25 days and the metastatic loci were monitored weekly using the IVIS after mice were subcutaneously injected with D-luciferin (150 mg/kg). Bioluminescence images was analysed using the Living Imagine software (Xenogen) and the measurement recorded was based on total photons/second (p/s) within each defined region of interest.

Another test relates to PPARγ. Also on record: method as in PMID 23236415. The note with it: cited from earlier work.
Test [4] deals with PC3-M cells. Kind of test: Boyden chamber invasion assay. Particulars: 100 μM, 24 h. The format is cell-based, human. As to the method:
PC3-M cells in serum-free medium were seeded in the upper Boyden chamber (BD Biosciences) in triplicate at a density of 2.5 × 10^4 cells per well in serum-free medium. Complete medium was added to the lower chambers. After 3 hours of incubation, 100 μM SBFI26 was added to the upper chambers. After 24 h of incubation, cells that invaded the lower chambers were stained with crystal violet and counted with a cell counter.

Test [5] deals with fatty acid uptake of PC3-M cells. Kind of test: Fatty acid uptake assay with BODIPY-labelled fatty acid. The format is cell-based, human. Particulars: 30 min; for cells with BODIPY-labelled fatty acid uptake (M2): control 92.9%. As to the method: Assay for fatty acid uptake was performed using red fluorescence-labelled BODIPY [57]. The fluorescence intensity from cells before and 30 minutes after adding BODIPY was measured to determine fatty acid uptake. In inhibition and competition experiments, different concentrations of unlabelled lead compound SBFI26 (50–200 μM) with the same concentration of labelled BODIPY were added directly to the highly malignant PC3-M cells.

Test [6] relates to PC3-M cells inoculated into the right flank. Kind of test: Subcutaneous nude mouse tumorigenicity assay. The format is in vivo, nude mice. As to the method:
PC3-M cells (2 × 10^6) in 200 μL PBS were subcutaneously injected into the right flank region of the mouse (6–8 week old) to test the suppressive effect of the inhibitors on tumorigenicity. In the first round, 3 groups of mice (8 each) were used: 1) control with PBS; 2) 1mg/kg SBFI26, injected from the 1st day after cell inoculation; 3) 1mg/kg SBFI26, injected from the 7th day after cell inoculation. In the second round, 2 groups of mice (5 each) were used and at 7 days after the cell inoculation, each group was subjected to different intra-tumoural injections: 1) control with PBS; 2) PPARγ antagonist (GW9662, 1mg/kg) (Sigma). The injections were repeated every 2 days for 30 days, tumour size was measured every 3–4 days and the volume calculated by the formula of L× W×H×0.5236 [56]. Work was performed in accordance with UKCCCR guidelines under Home Office License PPL40/2963.

Test [7] concerns PC3-M cells. Kind of test: Cell viability MTT assay. The format is cell-based, human. The note with it: 24 h. Here is the method:
(§1) PC3-M cells (5 × 10^4) were plated in triplicate in 96 well plates and incubated overnight. Cells were treated with different concentrations of SBFI26 (25–125 μM) for 24 h. Cell viability was assessed using MTT assay, as described previously. The anti-proliferative effect of the best concentration for SBFI26 was determined after 6 days of treatment.
In general terms: Tetrazolium dyes change colour on reduction, which living cells bring about.

Test [8] has as its system PC3-M cells. The experiment in a line: Proliferation MTT assay. The format is cell-based, human. The note with it: 100 μM. Here is the method: as §1
Test [9] has as its system p-PPARγ1 and p-PPARγ2 in 22RV1 cells. The experiment in a line: Western blot of phosphorylated PPARγ in 22RV1 cells. The format is cell-based, human. Particulars: for effect on levels of p-PPARγ1 and 2: 22RV1, 24 h. A general note: In western blotting, separated proteins are transferred to a membrane and probed.
Test [10] concerns p-PPARγ1 and p-PPARγ2 in PC3-M cells. The experiment in a line: Western blot of phosphorylated PPARγ in PC3-M cells. The format is cell-based, human. The note with it: for reduction in level of p-PPARγ1 / reduction in level of p-PPARγ2: untreated set at 1.

Sequence of wtrFABP5 (Q01469 whole entry): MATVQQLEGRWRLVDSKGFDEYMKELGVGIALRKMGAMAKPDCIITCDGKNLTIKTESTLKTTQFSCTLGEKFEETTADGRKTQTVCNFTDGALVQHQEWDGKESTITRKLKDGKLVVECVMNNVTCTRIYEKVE

As to `CN(C)c1cccc2c(S(=O)(=O)NCCCCCCCCCCC(=O)O)cccc12` [DAUDA], the Kd on wtrFABP5 (3 μM wtrFABP5 titrated with DAUDA 0.4–3 μM, ex 345/em 530 nm, read-out: apparent dissociation constant (Kd) of DAUDA to wtrFABP5) stood at 1.86 ± 0.16 µM. The “maximal fluorescence intensity (Bmax)” value at wtrFABP5 (DAUDA titration to 3 μM wtrFABP5) was determined as 3.579.
Turning to `CCCCC/C=C\C/C=C\CCCCCCCC(=O)O` [linoleic acid], at wtrFABP5, the “relative level of fluorescence intensity after adding ligand to the DAUDA-wtrFABP5 complex” value is reported as 1.37 ± 0.07 and the Ki came out at 1.57 µM.
In the case of `O=C(O)C1C(c2ccccc2)C(C(=O)Oc2cccc3ccccc23)C1c1ccccc1` (stereo not drawn) [SBFI26, α-truxillic acid 1-naphthyl mono-ester], the “reduction in wound size” value in the test with PC3-M cells [1] worked out at 19%. Further, in the test with PC3-M cells [2] (2 weeks, vs control), the “inhibition of colony formation” value stood at 100%. Besides, in the test on PC3-M cells [2] (after 2 weeks, control 124 ± 18), the “number of colonies formed in soft agar” value turned out to be 0. For the same compound, in test [3] (25 days, 1 mg/kg i.p.), the “suppression in metastasis incidence compared to control” value was determined as 50%. Besides, the “mice that produced visceral metastasis (number/total)” value in test [3] (25 days, 1 mg/kg i.p., control 7/7) is 4/8. Further, in [3] (25 days, 1 mg/kg i.p., control 100%), the “mice that produced visceral metastasis” value turned out to be 50%. Moreover, the “metastasis sites by histological staining” value in test [3] (H&E, control: all mice, mainly liver and lung) is “half of the mice developed liver metastases with no metastasis in the lung”. In addition, the bioluminescence signal in test [3] (day 25, 1 mg/kg intraperitoneally, control 31.5 × 10^8) is recorded as 6.66 × 10^8 p/sec/cm^2. The “activity at PPARγ” value in the test on PPARγ is reported as “weak agonist of PPARγ”. Further, the suppression of invasion in the test with PC3-M cells [4] (vs control) is recorded as 95.5%. Moreover, the “mean number of invaded cells” value with PC3-M cells [4] (control 22 ± 3) worked out at 1 ± 1. Moreover, the “unstained cells (M1)” value amounted to 20.76% in test [5] (50 μM), 32.31% in test [5] (100 μM), 30.88% in [5] (150 μM) and 30.79% in test [5] (200 μM). The “cells with BODIPY-labelled fatty acid uptake (M2)” value in test [5] (50 μM) is 79.24%; in test [5] (100 μM), 67.7% and 67.69%; in test [5] (150 μM), 69.12%; in [5] (200 μM) it was 69.21%. For the same compound, in test [6] (SBFI26 1 mg/kg for 31 days), the “suppression of tumour volume vs control” value is given as 52%. Further, the “average tumour volume on termination” value in [6] (SBFI26 1 mg/kg for 31 days, n = 8, control 627 ± 120 mm^3) amounted to 302 ± 86 mm^3. Further, in the test with PC3-M cells [7] (100 μM), the “reduction in cell numbers” value is given as 26%. For the same compound, in the test on PC3-M cells [7] (MTT), the “concentration producing maximum suppression of viability” value was 100 µM. For the same compound, the “reduction of proliferation rate” value in the test with PC3-M cells [8] turned out to be 17 times. Besides, the “average reduction in both PPARγ activated isoforms” value in [9] (22RV1) is on record as 33.5%; in test [10], “about 50%”. Also, the “effect on levels of p-PPARγ1 and 2” value in test [9] is listed as “suppressed the levels of both p-PPARγ isoforms”. Further, the “reduction in level of p-PPARγ1” value in [10] (24 hours) turned out to be 44%. Besides, in test [10] (24 hours), the “reduction in level of p-PPARγ2” value amounted to 46%.
`CN(CCOc1ccc(CC2SC(=O)NC2=O)cc1)c1ccccn1` (centres unmarked) [rosiglitazone]: the “effect on levels of p-PPARγ isoforms” value in test [10] (24 hours) is “significantly increased levels of both p-PPARγ isoforms”.
“wtrFABP5: FABP5 protein (wtrFABP5) used as binding target and as treatment of 22RV1 cells”: the “effect on levels of p-PPARγ1 and 2” value in [9] is “significantly increased levels of both p-PPARγ1 and 2”.
As to `O=C(Nc1ccccc1)c1cc([N+](=O)[O-])ccc1Cl` [GW9662], the “suppression of tumour size vs control” value in test [6] (GW9662 1 mg/kg from day 7) is on record as 67%. Also, the “average size of tumours” value in test [6] (GW9662 1 mg/kg intra-tumoural from day 7, n = 5, control 774 ± 202 mm^3) was found to be 252 ± 84 mm^3. Besides, in [10] (24 hours), the “reduction in level of p-PPARγ1” value came out at 52% and the “reduction in level of p-PPARγ2” value was found to be 51%.
For the compound `CCCCCCCC/C=C\CCCCCCCC(=O)O` [oleic acid], at wtrFABP5, the “relative level of fluorescence intensity after adding ligand to the DAUDA-wtrFABP5 complex” value is 1.68 ± 0.09 and the Ki worked out at 1.89 µM.
